Results on one substance are retold here after patent US20260151425A1, “COMPOSITIONS AND METHODS OF USE THEREOF” (SYNEDGEN, INC., priority 2020, published 2026).

Test [1] relates to M. avium complex NTM 0260. Kind of test: MIC of CF NTM clinical isolates. The following applies: M. avium complex NTM 0260. Format: cell-based.
Test [2] concerns M. abscessus subsp. abscessus NTM 0079. The test can be described thus: MIC of CF NTM clinical isolates. It counts as cell-based. The note with it: M. abscessus subsp. abscessus NTM 0079.
The test system of test [3] is biofilm cultures of Mycobacteria isolates. The test can be described thus: MBEC assay, logarithmic reduction of biofilm growth. It counts as cell-based. The following applies: 48 hour biofilms treated for an hour; varies from strain to strain. As for the experimental part:
(§1) Biofilm cultures of Mycobacteria isolates were grown for 48 hours in static 96-well plates at 37 C on a static incubator. The biofilm cultures were treated using PAAG alone and in formulation with 1.38% glycerol for an hour. The MBEC assay measured the logarithmic reduction in the growth of biofilm by serial dilution and spot plate method. […] The static assay was used to measure the decrease in biofilm density as the dose of PAAG increases by staining each well with crystal violet and measuring the biofilm densities at 590 nm.

For test [4], the system named is MABSC cultures. Kind of test: Modified time kill analysis with 7-day recovery phase. Format: cell-based, Mycobacterium abscessus complex. The note with it: PAAG 250 μg/mL. As for the experimental part: For MABSC cultures, a modified time kill analysis was performed over a period of 12 days and included a 7-day recovery phase in antimicrobial free media post treatment. PAAG treatment led to eradication of MABSC cell population within 48 hours of treatment.

Test [5] has as its system biofilm cultures of Mycobacteria isolates. Kind of test: Static biofilm assay with crystal violet staining. It counts as cell-based. The following applies: 48 hour biofilms treated for an hour; increasing dose of PAAG. As for the experimental part:
as §1
The biofilm biomass was quantified using crystal violet staining in static TCP biofilm assay.

In test [6] the test system is NTM biofilms. The test can be described thus: Optical measurement of biofilm thickness. It counts as cell-based. The following applies: PAAG at 50, 100 and 200 μg/mL. The source says: The biofilm thickness was optically measured assuming the Refractive Index (RI) of the biofilm was equal to water per Bakke & Olsson, et al., (1986).
Test [7] has as its system MAC persister cells. The test can be described thus: PAAG treatment of antibiotic induced NTM persisters. It counts as cell-based, Mycobacterium avium complex. From the text:
(§2) The cultures were then pelleted, washed free of antibiotics and resuspended in broth free of any antimicrobials (i.e., recovery phase).

For test [8], the system named is M. avium complex NTM 0813. Kind of test: MIC of CF NTM clinical isolates. Format: cell-based. The note with it: M. avium complex NTM 0813.
For test [9], the system named is M. gordonae NTM 0274. The test can be described thus: MIC of CF NTM clinical isolates. Format: cell-based. The note with it: M. gordonae NTM 0274.
Test [10] has as its system M. abscessus subsp. abscessus NTM 0082. The test can be described thus: MIC of CF NTM clinical isolates. Format: cell-based. The following applies: M. abscessus subsp. abscessus NTM 0082.
The subject of test [11] is MAC cultures. Kind of test: Modified time kill analysis with 7-day recovery phase. It counts as cell-based, Mycobacterium avium complex. The note with it: PAAG 250 μg/mL. How it is done:
For MAC cultures, a modified time kill analysis was performed over a period of 21 days and included a 7-day recovery phase in antimicrobial free media post treatment. PAAG treatment led to eradication of MAC cell population within 4 days of treatment.

In test [12] the test system is MABSC persister cells. Kind of test: PAAG treatment of antibiotic induced NTM persisters. Format: cell-based, Mycobacterium abscessus complex.
Source text: as §2

Test [13] relates to M. abscessus subsp. bolletii NTM 0003. The test can be described thus: MIC of CF NTM clinical isolates. Format: cell-based. The note with it: M. abscessus subsp. bolletii NTM 0003.

Turning to “poly(acetyl, arginyl) glucosamine [PAAG]”, the MIC came to 16 µg/mL in test [1]; 250 µg/mL in [2]; 16 µg/mL in test [8]; 32 µg/mL in test [9]; 250 µg/mL in test [10]; 128 µg/mL in test [13]. In addition, in test [3], the “log reduction in biofilm compared to the control” value is “two to three log reduction”. Besides, in test [4] (time kill over 12 days), the “time to eradication of MABSC cell population” value was at most 48 h. In addition, the killing outcome in test [4] (rapid growing MABSC) and in [11] (slow growing MAC) was “complete eradication” each time. The “biofilm density (crystal violet, 590 nm)” value in test [5] is listed as “dose dependent reduction in the density of the bacteria”. Also, the biofilm thickness entry in test [6] was “reduction in BCC biofilm thickness in a dose dependent manner”. In test [6] (depths >5-10 μm), the “bacterial viability at depth in biofilm” value was “significantly decreased bacterial viability”. Further, the “CFU/mL after PAAG treatment of persisters” value amounted to 0 CFU/mL in test [7] (MAC cultures surviving antibiotic treatment, PAAG for 10 days) and 0 CFU/mL in test [12] (MABSC cultures surviving antibiotic treatment, PAAG for 4 days). Besides, the “regrowth of persisters after PAAG treatment” value is recorded as “none of the persisters in either strain showed regrowth” in test [7] (MAC, recovery in fresh broth 24 days) and “none of the persisters in either strain showed regrowth” in test [12] (MABSC, recovery in fresh broth 12 days). For the same substance, the “time to eradication of MAC cell population” value in test [11] (time kill over 21 days) was at most 4 days.

As usually defined, the MIC is the smallest concentration in the dilution series that meets the test's criterion for growth inhibition.
